The source of these data is patent US20170143712A1, “Methods of Treating Cancers, Immune and Autoimmune Diseases, and Inflammatory Diseases Based on BTK Occupancy and BTK Resynthesis Rate” (Acerta Pharma B.V., priority 2014, published 2017).

In one series the test system is S6 phosphorylation. As to the kind of experiment: Basal and anti-IgM induced S6 phosphorylation in splenocytes after oral dosing of mice. To be noted: single oral 25 mg/kg; rank order Formula (II)>ibrutinib>Formula (XVII). The series is classed as in vivo, mouse. Here is the method:
(§1) B cell stimulation through the B cell receptor (BCR) with antibodies (e.g., anti-IgM) results in the activation of BTK and subsequent cellular changes, including the upregulation of various cell surface receptors. Measuring the inhibition of BCR induced protein phosphorylation downstream of Btk, and the inhibition of surface receptor upregulation provides a way to assess the Btk inhibitor activity. In the first study, the BTK target occupancy in splenocytes was measured over time, providing evidence for BTK resynthesis in the tissue compartment of interest.
(§2) Mice were sacrificed at 3, 6, 12, 18, and 24 hours after treatment with the BTK inhibitors (FIG. 27A, FIG. 27B, and FIG. 27C). Spleens were harvested and splenocyte preparations were made for flow cytometry analysis of B cell functions. Fresh or cryopreserved splenocytes were cultured with a-IgM to stimulate BCR, and the up-regulation of CD69, an early functional marker of B cell activation, was analyzed by flow cytometry.
A downstream marker of BTK activity, S6 phosphorylation, was also monitored in this study. […] In a second study, the effects of another inhibitor of BTK that covalently inactivates the kinase, Formula (XXI), were compared with Formula (II) to evaluate the return of BCR function and B cell activation, as illustrated in FIG. 29A and FIG. 29B.

For the next series, the target named is T1, BTK (Mus musculus, UniProt P35991).
T1 construct: from tissue; host or cells: mouse spleen (splenocytes), animals dosed in vivo; A19 used DBA/1 mice with collagen-induced arthritis
T1 sequence (P35991 whole entry): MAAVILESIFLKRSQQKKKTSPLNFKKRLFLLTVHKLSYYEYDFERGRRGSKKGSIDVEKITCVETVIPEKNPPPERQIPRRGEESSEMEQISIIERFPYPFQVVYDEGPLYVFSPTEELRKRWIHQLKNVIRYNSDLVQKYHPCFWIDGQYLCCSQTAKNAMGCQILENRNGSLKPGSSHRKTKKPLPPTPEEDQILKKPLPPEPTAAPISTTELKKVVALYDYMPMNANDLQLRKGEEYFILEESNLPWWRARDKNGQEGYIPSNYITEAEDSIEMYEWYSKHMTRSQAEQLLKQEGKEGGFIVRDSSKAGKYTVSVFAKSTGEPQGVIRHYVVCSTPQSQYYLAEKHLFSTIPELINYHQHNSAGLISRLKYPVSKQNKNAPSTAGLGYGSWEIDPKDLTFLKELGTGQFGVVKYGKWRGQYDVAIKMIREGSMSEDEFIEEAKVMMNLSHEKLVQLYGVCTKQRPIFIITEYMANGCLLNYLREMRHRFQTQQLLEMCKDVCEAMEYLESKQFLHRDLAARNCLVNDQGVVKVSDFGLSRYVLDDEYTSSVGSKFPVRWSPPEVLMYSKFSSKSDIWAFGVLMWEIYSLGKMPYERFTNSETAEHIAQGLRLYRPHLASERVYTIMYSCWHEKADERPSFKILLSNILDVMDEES
The experiment in a line: BTK target occupancy in mouse splenocytes after a single oral dose. In kind it is in vivo. Particulars: single oral 25 mg/kg, 3 hours.

Series [1] concerns B cell receptor (BCR). As to the kind of experiment: Ex vivo anti-IgM induced CD86 and CD69 expression on splenocyte B cells after oral dosing of mice. The series is classed as in vivo, mouse. Particulars: single oral 25 mg/kg. Here is the method: as §1, §2
The test system of series [2] is B cell receptor (BCR). The series is described as above. In kind it is in vivo. To be noted: Mus musculus, single oral 25 mg/kg, 3-24 hours, read-out: CD86 % inhibition over the entire time course.
Another series has as its system psoriasis. To be noted: tyrosine kinase inhibitors used for malignancies; cited from earlier work.

Read-outs that look alike come from different tables or passages of the source.

One may read the inhibition as how much of the control response was suppressed. For `C=CC(=O)Nc1cccc(Nc2nc(Nc3ccc(OCCOC)cc3)ncc2F)c1` [Formula (XVII), N-(3-((5-fluoro-2-((4-(2-methoxyethoxy)phenyl)amino)pyrimidin-4-yl)amino)phenyl)acrylamide], the “basal state and anti-IgM induced S6 phosphorylation” value in the series with S6 phosphorylation was “inhibited both basal state and anti-IgM induced S6 phosphorylation”. Besides, the “BTK target occupancy in splenocytes” value on BTK is on record as “incomplete BTK target occupancy”. For the same molecule, the inhibition at 25 mg/kg came to 44.8% in the series on B cell receptor (BCR) [1] (Mus musculus, B-cell, 3-24 hours, read-out: CD69 % inhibition over the entire time course) and 28.1% in the series with B cell receptor (BCR) [2]. In addition, the “inhibition of ex vivo anti-IgM induced responses in B cells” value with B cell receptor (BCR) [1] (3 hours post-dose) is “incomplete inhibition”.
As to `Cc1nc(Nc2ncc(C(=O)Nc3c(C)cccc3Cl)s2)cc(N2CCN(CCO)CC2)n1` [dasatinib], the “effect on psoriasis / skin in patients” value with psoriasis was “has not been reported to improve psoriasis”.
Consider `Cc1ccc(NC(=O)c2ccc(CN3CCN(C)CC3)cc2)cc1Nc1nccc(-c2cccnc2)n1` [imatinib], for which the “effect on psoriasis / skin in patients” value in the series on psoriasis is recorded as “may cause worsening of psoriasis”.
